Source: patent US4303785A, “Antitumor anthracycline antibiotics” (priority 1978, dated 1981)
Where two headings read alike, the source gives them in different places.

System: L1210 cells
Experiment: animal or person
Type: in vivo, CDF1 mice
Conditions: for response vs control in vivo at 0.15 mg/kg / response vs control in vivo at 0.31 mg/kg / response vs control in vivo at 0.625 mg/kg / response vs control in vivo at 1.25 mg/kg / response vs control in vivo at 2.5 mg/kg / response vs control in vivo at 5 mg/kg: Mus musculus, L1210, ip, 1080 h; for response vs control in vivo at 1.25 mg/kg: read-out: Antitumor Activity (T/C, prolongation rate of survival day), 1.25 mg/kg/day i.p., once daily for 10 days; for response vs control in vivo at 2.5 mg/kg: read-out: Antitumor Activity (T/C, prolongation rate of survival day), 2.5 mg/kg/day i.p., once daily for 10 days; for response vs control in vivo at 5 mg/kg: read-out: Antitumor Activity (T/C, prolongation rate of survival day), 5 mg/kg/day i.p., once daily for 10 days
Procedure: D. Representative compounds of general formula I" were tested against experimental animal tumors as follows: […]
CDF1 mice were administered intraperitoneally (i.p.) with 1×10^5 cells/mouse of L1210 cells. After 24 hours had elapsed since inoculation, the mice were administered the test compounds intraperitoneally once daily for 10 consecutive days and observed for a 45 day period.
The antitumor activity was shown by the prolongation rate of survival day (T/C, %) to the survival day of control mice injected with physiological saline.

[1] = 1.25 mg/kg/day i.p., once daily for 10 days
[2] = 2.5 mg/kg/day i.p., once daily for 10 days
[3] = 5 mg/kg/day i.p., once daily for 10 days
[4] = read-out: Antitumor Activity (T/C, prolongation rate of survival day), 0.15 mg/kg/day i.p., once daily for 10 days
[5] = read-out: Antitumor Activity (T/C, prolongation rate of survival day), 0.31 mg/kg/day i.p., once daily for 10 days
[6] = read-out: Antitumor Activity (T/C, prolongation rate of survival day), 0.625 mg/kg/day i.p., once daily for 10 days
[7] = 0.15 mg/kg/day i.p., once daily for 10 days
[8] = 0.31 mg/kg/day i.p., once daily for 10 days
[9] = 0.625 mg/kg/day i.p., once daily for 10 days

SMILES | Antitumor Activity (T/C, prolongation rate of survival day) [1] [%] | Antitumor Activity (T/C, prolongation rate of survival day) [2] [%] | Antitumor Activity (T/C, prolongation rate of survival day) [3] [%] | response vs control in vivo at 0.15 mg/kg (0.15 mg/kg/day i.p., once daily for 10 days, read-out: Antitumor Activity (T/C, prolongation rate of survival day)) [%] | response vs control in vivo at 0.31 mg/kg (0.31 mg/kg/day i.p., once daily for 10 days, read-out: Antitumor Activity (T/C, prolongation rate of survival day)) [%] | response vs control in vivo at 0.625 mg/kg (0.625 mg/kg/day i.p., once daily for 10 days, read-out: Antitumor Activity (T/C, prolongation rate of survival day)) [%] | response vs control in vivo at 0.15 mg/kg [4] [%] | response vs control in vivo at 0.31 mg/kg [5] [%] | response vs control in vivo at 0.625 mg/kg [6] [%] | response vs control in vivo at 1.25 mg/kg [%] | response vs control in vivo at 2.5 mg/kg [%] | Antitumor Activity (T/C, prolongation rate of survival day) [7] [%] | Antitumor Activity (T/C, prolongation rate of survival day) [8] [%] | Antitumor Activity (T/C, prolongation rate of survival day) [9] [%] | response vs control in vivo at 5 mg/kg [%]
COc1cccc2c1C(=O)c1c(O)c3c(c(O)c1C2=O)C[C@@](O)(C(=O)CO)C[C@@H]3O[C@H]1C[C@H](N)[C@H](OC2CCCO2)[C@H](C)O1 (stereo partly shown) [Example 4, 4'-O-tetrahydrofuranyl adriamycin] | 179 | 360 | 314 | 105 | 111 | 136 |  |  |  |  |  |  |  |  | 
COc1cccc2c1C(=O)c1c(O)c3c(c(O)c1C2=O)C[C@@](O)(C(C)=O)C[C@@H]3O[C@H]1C[C@H](N)[C@H](OC2CCCC(OC)O2)[C@H](C)O1 (single isomer, unassigned) [Example 14-a, 4'-O-(6-methoxytetrahydropyranyl) daunomycin a] |  |  | 232 |  |  |  | 100 | 100 | 100 | 106 | 125 |  |  |  | 
COc1cccc2c1C(=O)c1c(O)c3c(c(O)c1C2=O)C[C@@](O)(C(C)=O)C[C@@H]3O[C@H]1C[C@H](N)[C@H](OC(C)OCC(C)C)[C@H](C)O1 (single isomer, unassigned) [Example 17-b, 4'-O-(1-isobutyloxyethyl) daunomycin b] | 106 | 113 | 188 |  |  |  |  |  |  |  |  | 100 | 100 | 100 | 
CCOC(C)O[C@@H]1[C@H](C)O[C@@H](O[C@H]2C[C@](O)(C(C)=O)Cc3c(O)c4c(c(O)c32)C(=O)c2c(OC)cccc2C4=O)C[C@@H]1N (single isomer, unassigned) [Example 16-b, 4'-O-(1-ethyloxyethyl) daunomycin b] | 112 | 133 | 247 |  |  |  |  |  |  |  |  | 90 | 96 | 108 | 
COc1cccc2c1C(=O)c1c(O)c3c(c(O)c1C2=O)C[C@@](O)(C(=O)COC(C)=O)C[C@@H]3O[C@H]1C[C@H](N)[C@H](OC2CCCCO2)[C@H](C)O1 (single isomer, unassigned) [Example 1-b, 14-O-acetyl-4'-O-tetrahydropyranyl adriamycin b] | 220 | 218 | 241 |  |  |  |  |  |  |  |  |  | 145 | 184 | 
COc1cccc2c1C(=O)c1c(O)c3c(c(O)c1C2=O)C[C@@](O)(C(=O)COC(C)=O)C[C@@H]3O[C@H]1C[C@H](N)[C@H](OC2CCCCO2)[C@H](C)O1 (single isomer, unassigned) [Example 1-a, 14-O-acetyl-4'-O-tetrahydropyranyl adriamycin a] |  | 239 |  |  |  |  |  |  | 195 | 228 |  |  | 203 |  | 225
COc1cccc2c1C(=O)c1c(O)c3c(c(O)c1C2=O)C[C@@](O)(C(=O)CO)C[C@@H]3O[C@H]1C[C@H](N)[C@H](OC2CCCC(COC(C)=O)O2)[C@H](C)O1 (stereo partly shown) [Example 6, 4'-O-(6-acetoxymethyltetrahydropyranyl) adriamycin] |  |  |  |  |  |  | 100 | 88 | 106 | 118 | 118 |  |  |  | 141
COc1cccc2c1C(=O)c1c(O)c3c(c(O)c1C2=O)C[C@@](O)(C(=O)CO)C[C@@H]3O[C@H]1C[C@H](N)[C@H](OC2CCCO2)[C@H](C)O1 (single isomer, unassigned) [Example 5-a, 4'-O-tetrahydrofuranyl adriamycin a] | 189 | 288 | 212 |  |  |  |  |  |  |  |  | 115 | 115 | 135 | 
CCCCOC(C)O[C@@H]1[C@H](C)O[C@@H](O[C@H]2C[C@](O)(C(=O)CO)Cc3c(O)c4c(c(O)c32)C(=O)c2c(OC)cccc2C4=O)C[C@@H]1N (single isomer, unassigned) [Example 8-a, 4'-O-(1-butyloxyethyl) adriamycin a] |  |  | 163 |  |  |  | 100 | 100 | 119 | 125 | 138 |  |  |  | 
CCOC(C)O[C@@H]1[C@H](C)O[C@@H](O[C@H]2C[C@](O)(C(C)=O)Cc3c(O)c4c(c(O)c32)C(=O)c2c(OC)cccc2C4=O)C[C@@H]1N (single isomer, unassigned) [Example 16-a, 4'-O-(1-ethyloxyethyl) daunomycin a] |  | 157 | 217 |  |  |  | 96 | 96 | 104 | 102 |  |  |  |  | 
COc1cccc2c1C(=O)c1c(O)c3c(c(O)c1C2=O)C[C@@](O)(C(=O)CO)C[C@@H]3O[C@H]1C[C@H](N)[C@H](OC(C)OCCCCCC(C)C)[C@H](C)O1 (single isomer, unassigned) [Example 10-b, 4'-O-(1-(6-methylheptyloxy)ethyl) adriamycin b] | 112 | 105 | 118 |  |  |  |  |  |  |  |  | 105 | 105 | 112 | 
COc1cccc2c1C(=O)c1c(O)c3c(c(O)c1C2=O)C[C@@](O)(C(=O)CO)C[C@@H]3O[C@H]1C[C@H](N)[C@H](OC2CCCO2)[C@H](C)O1 (single isomer, unassigned) [Example 5-b, 4'-O-tetrahydrofuranyl adriamycin b] | 154 | 230 | 256 |  |  |  |  |  |  |  |  | 122 | 128 | 141 | 
CCOC(C)O[C@@H]1[C@H](C)O[C@@H](O[C@H]2C[C@](O)(C(=O)CO)Cc3c(O)c4c(c(O)c32)C(=O)c2c(OC)cccc2C4=O)C[C@@H]1N (single isomer, unassigned) [Example 7-a, 4'-O-(1-ethyloxyethyl) adriamycin a] |  | 277 | 108 |  |  |  | 96 | 101 | 127 | 145 |  |  |  |  | 
